In patent US20210290576A1, “STRUCTURALLY MODIFIED FATTY ACIDS FOR IMPROVING GLYCEMIC CONTROL AND TREATING INFLAMMATORY BOWEL DISEASE” (NORTHSEA THERAPEUTICS B.V., priority 2018, published 2021):
Entries after “also recorded” stand apart in the source; their conditions may differ.

What was measured:
[1] = Excretion balance: recovery of radioactivity in excreta; type: in vivo, male albino rats; details: single oral 50 mg/kg [14C]-Compound B
Description: Biological Example 8. Recovery of Radioactivity in the Excreta of Male Albino Rats after a Single Oral Administration of [14C]-Compound B at a Nominal Dose Level of 50 mg/kg Body Weight
To assess Compound B clearance via urine versus feces, the excretion pattern of a single oral dose of [14C]-Compound B was determined in male albino rats. […] The total excretion of radioactivity following oral administration was >95% within the first 48 hours. Excretion via the urine accounted for 12% of the administered dose. […]

active GLP-1 = assay: Active GLP-1 during an oral glucose tolerance test (OGTT) and at 24 h in lean male SPD rats; type: in vivo, Sprague-Dawley (SPD) rats; details: in combination with DPP4 inhibitor (linagliptin); Compound A 74 mg/kg, Compound B 84 mg/kg, two oral doses
Description: Evaluation of the Acute Effects of Compound a and Compound B Upon Active GLP-1 wconcentrations during an oral glucose tolerance test (OGTT) and at 24 h in lean male SPD Rats
To establish the acute effects of oral administration of Compound A and Compound B upon active GLP-1 and insulin concentrations, lean (about 300 g) male Sprague-Dawley (SPD) rats were divided into groups (n=6-8) and fed 74 and 84 mg/kg body weight of Compound A or Compound B respectively, either with or without concurrent administration of a dipeptidyl peptidase 4 (DPP-4) inhibitor 60 minutes prior to an oral glucose tolerance test (OGTT) as outlined below. Parallel groups receiving either corn oil alone (corn oil+vehicle, n=10) or corn oil and a DPP-4 inhibitor (“DPP-4 i”) (corn oil+(DPP-4 i), n=10) were included as controls. The DPP-4 inhibitor was linagliptin.
A second oral dose of 74 and 84 mg/kg bodyweight of Compound A or Compound B respectively was administered at 240 minutes and ad lib feeding was initiated. A second dose of DPP-4 inhibitor was administered at 480 mins prior to lights out. Blood samples were collected at 24 h for measurement of active GLP-1 and insulin. All values are mean, figures depict mean values (SEM).

[2] = tested on: IL6, IL1b, S100A8, TNFα, Reg3g, IL17a mRNA; assay: Colonic mRNA levels of proinflammatory cytokines and biomarkers in DSS-induced colitis mice (real-time PCR); type: in vivo, C56BL/6J mouse; details: 126 and 252 mg/kg per day; normalized to HPRT; vs untreated mice
Description: The C56BL/6J mouse is a strain susceptible to DSS-induced colitis. To evaluate the efficacy and dosage of Compound B in treatment of DSS-induced colitis, inflammation was induced in 30 9-week old C56BL/6J mice by adding 1.5% DSS to the drinking water for 7 days. The mice were fed a standard chow diet that consisted of 30 weight percent wheat. The mice were divided into three groups of 10, and for each day of DSS administration each group was administered via oral gavage either (1) 100 μL corn oil per day (Control), (2) 126 mg/kg Compound B (dissolved in 100 μL corn oil) per day (“Compound B—Low” or “Compound B—L”), or (3) 252 mg/kg Compound B (dissolved in 100 μL corn oil) per day (“Compound B—High” or “Compound B—H”). Following the 7-day period of DSS induction, mice were sacrificed and their intestinal tissue was used for histopathological and gene expression analysis.
To evaluate the effect of treatment with Compound B on the levels of proinflammatory cytokines and biomarkers, total RNA was extracted from small and large intestinal tissue samples (>100 mg). cDNA was synthesized by reverse transcription and analyzed by real-time PCR. Results were normalized to the level of the housekeeping gene hypoxanthine guanine phosphoribosyltransferase (HPRT). The relative mRNA expression of the tested gene relative to HPRT expression was calculated using the 2^−ΔΔCt method as described in Pickert et al., J. Exp. Med., 2009, 206:1465-1472. Interleukin 6 (IL6), IL1b, calgranulin-A (S100A8), and tumor necrosis factor α (TNFα) have been implicated as mediators of IBD, including both ulcerative colitis and Crohn's disease. IL6, IL1b, and calgranulin-A are prominently expressed in inflammatory macrophages. IL22-dependent regenerating islet-derived 3 gamma (Reg3g) is induced in response to inflammation in epithelial cells. IL17 is secreted by Th17 T helper cells and innate lymphoid cells type 3 (ILC3).

For `CC/C=C\C/C=C\C/C=C\C/C=C\C/C=C\CCCCSC(CC)(CC)C(=O)O` [Compound B, 2-ethyl-2-((5Z,8Z,11 Z,14Z,17Z)-icosa-5,8,11,14,17-pentaenylthio)butanoic acid], the “% Recovery of Administered Dose, Mean total radioactivity” value ([1]; 0-168 h, n = 3) was 101%, the “total excretion of radioactivity within the first 48 hours” value [1] was over 95% and the “active GLP-1 concentrations at 24 h versus corn oil+vehicle” value (active GLP-1) was “significantly (p<0.01) increased”. The “relative colonic mRNA level of IL1b” value [2] was “reduced colonic expression; also recorded: dose-dependent decrease”, the “relative colonic mRNA level of IL6” value [2] was “reduced colonic expression; also recorded: dose-dependent decrease” and the “relative colonic mRNA level of IL17a” value [2] was “lack of change”. For the same compound, the “relative colonic mRNA level of Reg3g” value [2] was “reduced colonic expression; also recorded: dose-dependent decrease”, the “relative colonic mRNA level of S100A8” value [2] was “reduced colonic expression; also recorded: dose-dependent decrease” and the “relative colonic mRNA level of TNFα” value [2] was “reduced colonic expression; also recorded: dose-dependent decrease”.
